Experimental data published in the NIST ThermoML archive (doi:10.1016/j.tca.2007.07.015).
Numbers after ± are expanded uncertainties.

Assay: excess molar enthalpy (molar enthalpy of mixing); xn = mol fraction of the nth substance listed
Conditions: 973 K, Liquid, Calvet calorimetry

[Pb] [lead] + [Au]
excess molar enthalpy (101 kPa, x2 = 0.0446): -0.24 ± 0.012 kJ/mol
excess molar enthalpy (101 kPa, x2 = 0.0465): -0.181 ± 0.009 kJ/mol
excess molar enthalpy (101 kPa, x2 = 0.0726): -0.383 ± 0.019 kJ/mol
excess molar enthalpy (101 kPa, x2 = 0.0864): -0.464 ± 0.024 kJ/mol
excess molar enthalpy (101 kPa, x2 = 0.0922): -0.345 ± 0.018 kJ/mol
excess molar enthalpy (101 kPa, x2 = 0.1272): -0.631 ± 0.032 kJ/mol
excess molar enthalpy (101 kPa, x2 = 0.1358): -0.531 ± 0.027 kJ/mol
excess molar enthalpy (101 kPa, x2 = 0.1368): -0.643 ± 0.033 kJ/mol
excess molar enthalpy (101 kPa, x2 = 0.1653): -0.729 ± 0.037 kJ/mol
excess molar enthalpy (101 kPa, x2 = 0.1768): -0.665 ± 0.034 kJ/mol
excess molar enthalpy (101 kPa, x2 = 0.1938): -0.789 ± 0.04 kJ/mol
excess molar enthalpy (101 kPa, x2 = 0.2): -0.886 ± 0.045 kJ/mol
excess molar enthalpy (101 kPa, x2 = 0.2003): -0.847 ± 0.043 kJ/mol
excess molar enthalpy (101 kPa, x2 = 0.2148): -0.782 ± 0.04 kJ/mol
excess molar enthalpy (101 kPa, x2 = 0.2333): -0.876 ± 0.044 kJ/mol
excess molar enthalpy (101 kPa, x2 = 0.2482): -0.885 ± 0.045 kJ/mol
excess molar enthalpy (101 kPa, x2 = 0.2506): -0.854 ± 0.043 kJ/mol
excess molar enthalpy (101 kPa, x2 = 0.2652): -0.952 ± 0.048 kJ/mol
excess molar enthalpy (101 kPa, x2 = 0.2841): -0.92 ± 0.047 kJ/mol
excess molar enthalpy (101 kPa, x2 = 0.2962): -1 ± 0.051 kJ/mol
excess molar enthalpy (101 kPa, x2 = 0.2966): -0.955 ± 0.048 kJ/mol
excess molar enthalpy (101 kPa, x2 = 0.3161): -0.929 ± 0.047 kJ/mol
excess molar enthalpy (101 kPa, x2 = 0.3226): -1.02 ± 0.052 kJ/mol
excess molar enthalpy (101 kPa, x2 = 0.3436): -0.985 ± 0.05 kJ/mol
excess molar enthalpy (101 kPa, x2 = 0.3455): -0.969 ± 0.049 kJ/mol
excess molar enthalpy (101 kPa, x2 = 0.3733): -0.985 ± 0.05 kJ/mol
excess molar enthalpy (101 kPa, x2 = 0.3862): -1 ± 0.051 kJ/mol
excess molar enthalpy (101 kPa, x2 = 0.4): -1.07 ± 0.054 kJ/mol
excess molar enthalpy (101 kPa, x2 = 0.402): -1.01 ± 0.051 kJ/mol
excess molar enthalpy (101 kPa, x2 = 0.4248): -1.01 ± 0.051 kJ/mol
excess molar enthalpy (101 kPa, x2 = 0.4294): -1.04 ± 0.053 kJ/mol
excess molar enthalpy (101 kPa, x2 = 0.4416): -1.04 ± 0.053 kJ/mol

[Pb] [lead] + [Ag]
excess molar enthalpy (101.3 kPa, x2 = 0.2): 2.32 ± 0.12 kJ/mol
